In patent publication US20250179061A1 (SIRONAX LTD., priority 2022, published 2025):
pIC50: −log10 of the molar value.

The compounds below were run on HT-29 cells (assay: HT-29 necroptosis cell viability assay (TNF-α/SMAC mimetic/zVAD-FMK, CellTiter-Glo)). Conditions: Homo sapiens, HT-29, HT-29 necroptosis cell viability assay; class symbols for IC50; read-out: Activity.
Assay type: cell-based
Procedure, shortened: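 Necroptosis was triggered by TNF-α (10 ng/ml), SMAC mimetic (6 μM) and zVAD-FMK (10 μM) in serum-free medium during 20 h compound exposure (10 concentrations, threefold steps) of HT-29 cells. IC50 from duplicate dose-responses uses CellTiter-Glo ATP luminescence as viability read-out.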

First: COC(=O)c1ncsc1Nc1ccc(-n2ncn(Cc3c(F)cccc3F)c2=O)cc1 [Example 171, methyl 5-((4-(4-(2,6-difluorobenzyl)-5-oxo-4,5-dihydro-1H-1,2,4-triazol-1-yl)phenyl)amino)thiazole-4-carboxylate]
Second: Cc1cnn(C)c1Oc1ccc(-n2ncn(Cc3c(F)cccc3F)c2=O)cc1 [Example 176, 4-(2,6-difluorobenzyl)-2-(4-((1,4-dimethyl-1H-pyrazol-5-yl)oxy)phenyl)-2,4-dihydro-3H-1,2,4-triazol-3-one]
The pIC50 of the first is lower: 5.00 to 6.00 for the first, > 7.00 for the second. The second is the more potent here.

`Cc1cc(Oc2ccc(-n3ncn(Cc4c(F)cccc4F)c3=O)cc2F)n(C)n1` [Example 172, 4-(2,6-difluorobenzyl)-2-(4-((1,3-dimethyl-1H-pyrazol-5-yl)oxy)-3-fluorophenyl)-2,4-dihydro-3H-1,2,4-triazol-3-one] and `Cc1n[nH]c(C)c1Oc1ccc(-n2ncn(Cc3c(F)cccc3F)c2=O)cc1F` [Example 178, 4-(2,6-difluorobenzyl)-2-(4-((3,5-dimethyl-1H-pyrazol-4-yl)oxy)-3-fluorophenyl)-2,4-dihydro-3H-1,2,4-triazol-3-one] cannot be ordered by pIC50: > 7.00 for the first, > 7.00 for the second.

`COC(=O)c1cnc(Oc2ccc(-n3ncn(Cc4c(F)cccc4F)c3=O)cc2F)n1C` [Example 173, methyl 2-(4-(4-(2,6-difluorobenzyl)-5-oxo-4,5-dihydro-1H-1,2,4-triazol-1-yl)-2-fluorophenoxy)-1-methyl-1H-imidazole-5-carboxylate] and `CCOC(=O)c1c(C)nc(Oc2ccc(-n3ncn(Cc4c(F)cccc4F)c3=O)cc2F)n1C` [Example 182, ethyl 2-(4-(4-(2,6-difluorobenzyl)-5-oxo-4,5-dihydro-1H-1,2,4-triazol-1-yl)-2-fluorophenoxy)-1,4-dimethyl-1H-imidazole-5-carboxylate] fall in the same range of pIC50: 6.00 to 7.00 for the first, 6.00 to 7.00 for the second.

First: CC(=O)c1nc(C)c(Oc2ccc(-n3ncn(Cc4c(F)cccc4F)c3=O)cc2F)n1C [Example 174, 2-(4-((2-acetyl-1,4-dimethyl-1H-imidazol-5-yl)oxy)-3-fluorophenyl)-4-(2,6-difluorobenzyl)-2,4-dihydro-3H-1,2,4-triazol-3-one]
Second: CCOC(=O)c1nc(Oc2ccc(-n3ncn(Cc4c(F)cccc4F)c3=O)cc2F)n(C)c1C [Example 181, ethyl 2-(4-(4-(2,6-difluorobenzyl)-5-oxo-4,5-dihydro-1H-1,2,4-triazol-1-yl)-2-fluorophenoxy)-1,5-dimethyl-1H-imidazole-4-carboxylate]
The pIC50 of the first is higher: > 7.00 for the first, 6.00 to 7.00 for the second.

`Cc1cnn(C)c1Oc1ccc(-n2nc3n(c2=O)C(c2ccccc2)CC3)cc1F` (stereo not drawn) [Example 175, 2-(4-((1,4-dimethyl-1H-pyrazol-5-yl)oxy)-3-fluorophenyl)-5-phenyl-2,5,6,7-tetrahydro-3H-pyrrolo[2,1-c][1,2,4]triazol-3-one] and `Cc1nn(CC2COC2)c(C)c1Oc1ccc(-n2ncn(Cc3c(F)cccc3F)c2=O)cc1F` [Example 179, 4-(2,6-difluorobenzyl)-2-(4-((3,5-dimethyl-1-(oxetan-3-ylmethyl)-1H-pyrazol-4-yl)oxy)-3-fluorophenyl)-2,4-dihydro-3H-1,2,4-triazol-3-one] cannot be ordered by pIC50: > 7.00 for the first, > 7.00 for the second.

`Cc1nn(C2COC2)c(C)c1Oc1ccc(-n2ncn(Cc3c(F)cccc3F)c2=O)cc1F` [Example 177, 4-(2,6-difluorobenzyl)-2-(4-((3,5-dimethyl-1-(oxetan-3-yl)-1H-pyrazol-4-yl)oxy)-3-fluorophenyl)-2,4-dihydro-3H-1,2,4-triazol-3-one] and `Cc1nn(CCO)c(C)c1Oc1ccc(-n2ncn(Cc3c(F)cccc3F)c2=O)cc1F` [Example 180, 4-(2,6-difluorobenzyl)-2-(3-fluoro-4-((1-(2-hydroxyethyl)-3,5-dimethyl-1H-pyrazol-4-yl)oxy)phenyl)-2,4-dihydro-3H-1,2,4-triazol-3-one] cannot be ordered by pIC50: > 7.00 for the first, > 7.00 for the second.

`CCOC1CN(c2nc(C)c(Oc3ccc(-n4ncn(Cc5c(F)cccc5F)c4=O)cc3)n2C)C1` [Example 183, 4-(2,6-difluorobenzyl)-2-(4-((2-(3-ethoxyazetidin-1-yl)-1,4-dimethyl-1H-imidazol-5-yl)oxy)phenyl)-2,4-dihydro-3H-1,2,4-triazol-3-one] and `Cc1nn(Cc2ccc(-n3ncn(Cc4c(F)cccc4F)c3=O)cc2)c(C)c1C` [Example 189, 4-(2,6-difluorobenzyl)-2-(4-((3,4,5-trimethyl-1H-pyrazol-1-yl)methyl)phenyl)-2,4-dihydro-3H-1,2,4-triazol-3-one] cannot be ordered by pIC50: > 7.00 for the first, > 7.00 for the second.

`Cc1nn(Cc2ccc(-n3ncn(Cc4c(F)cccc4F)c3=O)cc2)cc1Br` [Example 184, 2-(4-((4-bromo-3-methyl-1H-pyrazol-1-yl)methyl)phenyl)-4-(2,6-difluorobenzyl)-2,4-dihydro-3H-1,2,4-triazol-3-one] and `Cc1nn(Cc2ccc(-n3ncn(Cc4c(F)cccc4F)c3=O)cc2)cc1C#N` [Example 190, 1-(4-(4-(2,6-difluorobenzyl)-5-oxo-4,5-dihydro-1H-1,2,4-triazol-1-yl)benzyl)-3-methyl-1H-pyrazole-4-carbonitrile] cannot be ordered by pIC50: > 7.00 for the first, > 7.00 for the second.

First: Cc1ncc(C#N)n1Cc1ccc(-n2ncn(Cc3c(F)cccc3F)c2=O)cc1 [Example 185, 1-(4-(4-(2,6-difluorobenzyl)-5-oxo-4,5-dihydro-1H-1,2,4-triazol-1-yl)benzyl)-2-methyl-1H-imidazole-5-carbonitrile]
Second: Cc1nc(C#N)cn1Cc1ccc(-n2ncn(Cc3c(F)cccc3F)c2=O)cc1 [Example 186, 1-(4-(4-(2,6-difluorobenzyl)-5-oxo-4,5-dihydro-1H-1,2,4-triazol-1-yl)benzyl)-2-methyl-1H-imidazole-4-carbonitrile]
The pIC50 of the first is lower: 6.00 to 7.00 for the first, > 7.00 for the second. The second is the more potent here.

First: Cc1nccn1Cc1ccc(-n2ncn(Cc3c(F)cccc3F)c2=O)cc1 [Example 187, 4-(2,6-difluorobenzyl)-2-(4-((2-methyl-1H-imidazol-1-yl)methyl)phenyl)-2,4-dihydro-3H-1,2,4-triazol-3-one]
Second: Cc1ccn(Cc2ccc(-n3ncn(Cc4c(F)cccc4F)c3=O)cc2)n1 [Example 192, 4-(2,6-difluorobenzyl)-2-(4-((3-methyl-1H-pyrazol-1-yl)methyl)phenyl)-2,4-dihydro-3H-1,2,4-triazol-3-one]
The pIC50 of the first is lower: 6.00 to 7.00 for the first, > 7.00 for the second.

First: Cc1cc(C)n(Cc2ccc(-n3ncn(Cc4c(F)cccc4F)c3=O)cc2)c1 [Example 188, 4-(2,6-difluorobenzyl)-2-(4-((2,4-dimethyl-1H-pyrrol-1-yl)methyl)phenyl)-2,4-dihydro-3H-1,2,4-triazol-3-one]
Second: Cc1nn(Cc2ccc(-n3ncn(Cc4c(F)cccc4F)c3=O)cc2)c(C)c1N [Example 193, 2-(4-((4-amino-3,5-dimethyl-1H-pyrazol-1-yl)methyl)phenyl)-4-(2,6-difluorobenzyl)-2,4-dihydro-3H-1,2,4-triazol-3-one]
The pIC50 of the first is higher: 6.00 to 7.00 for the first, 5.00 to 6.00 for the second. The first is the more potent here.

First: Cc1c(C#N)cnn1Cc1ccc(-n2ncn(Cc3c(F)cccc3F)c2=O)cc1 [Example 191, 1-(4-(4-(2,6-difluorobenzyl)-5-oxo-4,5-dihydro-1H-1,2,4-triazol-1-yl)benzyl)-5-methyl-1H-pyrazole-4-carbonitrile]
Second: N#Cc1cccn(Cc2ccc(-n3ncn(Cc4c(F)cccc4F)c3=O)cc2)c1=O [Example 194, 1-(4-(4-(2,6-difluorobenzyl)-5-oxo-4,5-dihydro-1H-1,2,4-triazol-1-yl)benzyl)-2-oxo-1,2-dihydropyridine-3-carbonitrile]
The pIC50 of the first is higher: > 7.00 for the first, 5.00 to 6.00 for the second. The first is the more potent here.
